This note sets out measurements from publication PMC11504387, “Synthesis and Biological Activity Assessment of 2-Styrylbenzothiazoles as Potential Multifunctional Therapeutic Agents” (Antioxidants, 2024).

Data set [1] deals with PMNL. The data set can be described thus: ROS production in PMA-stimulated PMNL. In kind it is cell-based, human. Conditions: 10 µM; for ROS Production (% of Control): mean ± SD. The method, then:
After 10 min at 37 °C, PMA (0.1 μM) was added. The fluorescence emission at 530 nm was measured after excitation at 485 nm in a thermally controlled (37 °C) NOVOstar microplate reader (BMG Lab technologies GmbH, Offenburg, Germany). […] ROS generation was induced by phorbol-12-myristate-13-acetate (PMA), a widely recognized agent for stimulating ROS production in neutrophils and enhancing endogenous superoxide formation. Diphenyleneiodonium (DPI, 10 µM), a NADPH oxidase inhibitor, served as a positive control. Through this assay, we could assess the potential interaction of our compounds with intracellular ROS production and their capacity to act as radical scavengers within a relevant cellular context. Furthermore, the outcomes provided additional insights into their inhibitory mechanism and helped to determine whether they act directly or non-specifically, as there is evidence that an impact on the ROS levels in PMNL could be translated to modulation of 5-LO activity in the cellular environment. […] With those data in hand, together with 5-LO inhibition assay outcomes, a direct inhibition of the enzyme stands as the best fitting option regarding the mechanism of action of compounds BZTst4 and BZTst6. […] This phenomenon was not further explored because such investigation was beyond the scope of this work.

Data set [2] deals with T1, 5-LO in A23187-stimulated human PMNL (Homo sapiens, UniProt P09917).
T1 construct: Freshly isolated PMNL (1 × 10^6 cells/mL) in PBS buffer pH 7.4; endogenous in cells; host or cells: primary human PMNL (neutrophils) isolated from blood
T1 sequence (P09917 1-674): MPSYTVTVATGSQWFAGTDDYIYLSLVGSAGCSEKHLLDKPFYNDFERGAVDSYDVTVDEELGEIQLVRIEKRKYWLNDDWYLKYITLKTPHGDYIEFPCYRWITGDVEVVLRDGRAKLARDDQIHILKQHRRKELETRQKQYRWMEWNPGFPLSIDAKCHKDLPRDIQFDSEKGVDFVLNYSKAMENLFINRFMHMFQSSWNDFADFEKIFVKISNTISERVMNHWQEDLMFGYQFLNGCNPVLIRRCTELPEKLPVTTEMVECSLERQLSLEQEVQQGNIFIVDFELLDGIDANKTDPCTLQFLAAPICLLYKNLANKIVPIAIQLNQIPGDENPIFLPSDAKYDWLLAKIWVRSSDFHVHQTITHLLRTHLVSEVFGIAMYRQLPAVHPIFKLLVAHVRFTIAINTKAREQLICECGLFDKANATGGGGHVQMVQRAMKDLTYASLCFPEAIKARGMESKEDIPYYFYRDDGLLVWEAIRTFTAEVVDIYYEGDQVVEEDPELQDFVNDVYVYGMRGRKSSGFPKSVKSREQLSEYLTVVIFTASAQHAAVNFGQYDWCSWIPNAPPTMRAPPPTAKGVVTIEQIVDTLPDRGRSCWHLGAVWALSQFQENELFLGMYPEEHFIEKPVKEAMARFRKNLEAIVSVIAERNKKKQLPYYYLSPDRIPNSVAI
The data set can be described thus: 5-Lipoxygenase inhibition in a cell-based assay (PMNL). To be noted: for remaining activity at 10 µM: PMNL, % relative to vehicle (DMSO), read-out: 5-LO Residual Activity (PMNL, 10 µM); for IC50: activated PMNL. As for the experimental part:
Following blood density centrifugation and cell population separation, PMNL was recovered from the pellet after hypotonic lysis of erythrocytes. Freshly isolated PMNL (1 × 10^6 cells/mL) in PBS buffer pH 7.4 with glucose (1 mg/mL) and CaCl2 (1 mM) was pre-incubated with the test compounds for 10 min at 37 °C. Then, 5-lipoxygenase (5-LO) product formation was started by addition of 2.5 μM Ca^2+-ionophore A23187 plus 20 μM arachidonic acid. The reaction was stopped after 10 min at 37 °C with 1 mL of ice-cold methanol containing 200 ng PGB1 as internal standard. Major 5-LO products (LTB4, trans-LTB4, epi-trans-LTB4, and 5-HETE) were extracted by SPE using Sep-Pak C18 35 cc Vac Cartridges (Waters, Milford, MA, USA) and analysed by UPLC-MS/MS as described by Pein et al..

Data set [3] can be described thus: In vitro filtering parameters of O/W sunscreen formulation on PMMA plates. To be noted: 3% in O/W sunscreen formulation. The method, then:
Synthesized compounds were incorporated at 3% concentration in a suitable oil-in-water (O/W) emulsion for cosmetic use as sunscreen.
INCI: Aqua, Glycerin, Xanthan Gum, Phenoxyethanol (and) Ethylhexylglycerin, Tribehenin PEG-20 Esters, Cetearyl Alcohol, Dicaprylyl Carbonate, PPG 26 Buteth-26 (and) PEG 40 Hydrogenated Castor Oil, C12-15 Alkyl Benzoate, Sodium hydroxide (sol. 10%).
A protocol previously reported by us was adopted. Briefly, 32.5 mg of each compound formulation was spread on the rough surface of 5 × 5 cm^2 PMMA plates in the form of small drops of approximately equal mass, in triplicate. The plates were placed in the dark for 15–30 min to allow the formation of a sun-stabilised standard layer and then inserted into the instrument and measured at five different points on each plate (UV transmittance range 290–400 nm). The blank was a plate coated with 32.5 mg glycerine, chosen for its non-fluorescence and UV transparency. In addition, in vitro SPF, UVAPF and ʎc values were calculated according to Equations (2)–(4) above. To evaluate the booster effect of selected synthesized compounds, they were incorporated at 3% concentration in an oil-in-water (O/W) sunscreen formulation with fixed SPF and UVAPf values (30 and 10, respectively).
Aiming to create compounds with diverse biological activities, the synthesized 2-styrylbenzothiazoles were examined for potential applications in sunscreens. Each candidate was incorporated into a standard cosmetic formulation at a concentration of 3% and subjected to photoprotective efficacy testing using the Diffey–Robson method. The formulation comprised an oil-in-water (O/W) emulsion suitable for sunscreen use, with each benzothiazole derivative being heat-solubilized in the oil phase and then dispersed into the emulsion using a turbo emulsifier. The mixture was then cooled, and the emulsion was spread onto polymethylmethacrylate (PMMA) plates before recording the transmittance spectra. The SPF value, UVA protection factor value (UVAPF), the […], and the critical wavelength (λc) were determined from the transmittance spectra using SPF calculator software and are presented in Table 3. These parameters are essential for evaluating the efficacy of potential sunscreen products.

Marks after values point to notes of the source that are not given here.

Regarding `C(=C\c1nc2ccccc2s1)/c1ccccc1` [BZTst1, (E)-2-styrylbenzo[d]thiazole], in data set [1], the “Effect on ROS production (in words)” value is given as “do not display any significant interference” and the “ROS Production (% of Control)” value was 124.78 ± 17.88 % of control. Besides, in data set [2], the remaining activity at 10 µM was 48.7 ± 10.2%. Also, in data set [3], the SPF turned out to be 13.88, the UVA/UVB was 0.96, the UVAPF is given as 7.08 and the “ʎc (critical wavelength)” value is given as 364 nm.

As a reminder, the IC50 is the concentration that inhibits the measured activity by half. High values mean lower potency, low ones higher potency. On to `Oc1ccc(/C=C/c2nc3ccccc3s2)cc1` [BZTst2, (E)-4-(2-(benzo[d]thiazol-2-yl)vinyl)phenol], for which, in data set [1], the “Effect on ROS production (in words)” value is reported as “unexpected rise in the ROS level” and the “ROS Production (% of Control)” value was >150% ^a % of control. Moreover, in data set [2], the remaining activity at 10 µM stood at 22.9 ± 14.6% and the IC50 was 2900 nM. Besides, in data set [3], the SPF is listed as 2.59, the UVA/UVB is on record as 1.46, the UVAPF was determined as 5.69 and the “ʎc (critical wavelength)” value is listed as 384 nm.

With `COc1ccc(/C=C/c2nc3ccccc3s2)cc1` [BZTst3, (E)-2-(4-methoxystyryl)benzo[d]thiazole], in data set [1], the “Effect on ROS production (in words)” value is listed as “do not display any significant interference” and the “ROS Production (% of Control)” value is 108.70 ± 12.15 % of control. The remaining activity at 10 µM in data set [2] is 75.3 ± 19.7%. Also, in data set [3], the SPF was found to be 2.26, the UVA/UVB came out at 1.59, the UVAPF was determined as 3.07 and the “ʎc (critical wavelength)” value was 378 nm.

With `Oc1ccc(/C=C/c2nc3ccccc3s2)cc1O` [BZTst4, (E)-4-(2-(benzo[d]thiazol-2-yl)vinyl)benzene-1,2-diol], in data set [1], the “Lowering of ROS production” value was less than 50% and the “ROS Production (% of Control)” value is recorded as 53.81 ± 16.30 % of control. In data set [2], the remaining activity at 10 µM was determined as 0.79 ± 0.49% and the IC50 was determined as 700 nM. In data set [3], the SPF is given as 3.87, the UVA/UVB was found to be 1.47, the UVAPF stood at 7.65 and the “ʎc (critical wavelength)” value was found to be 389 nm.

As for `COc1ccc(/C=C/c2nc3ccccc3s2)cc1O` [BZTst5, (E)-5-(2-(benzo[d]thiazol-2-yl)vinyl)-2-methoxyphenol], in data set [1], the “Effect on ROS production (in words)” value is “do not display any significant interference” and the “ROS Production (% of Control)” value is on record as 99.62 ± 4.14 % of control. In data set [2], the remaining activity at 10 µM was determined as 74 ± 25.8%. In addition, in data set [3], the SPF is 2.91, the UVA/UVB worked out at 0.93, the UVAPF is recorded as 2.70 and the “ʎc (critical wavelength)” value stood at 384 nm.

On to `COc1cc(/C=C/c2nc3ccccc3s2)ccc1O` [BZTst6, (E)-4-(2-(benzo[d]thiazol-2-yl)vinyl)-2-methoxyphenol], for which, in data set [1], the “Lowering of ROS production” value is recorded as less than 50% and the “ROS Production (% of Control)” value is 62.50 ± 5.62 % of control. Further, in data set [2], the remaining activity at 10 µM was 7.11 ± 4.9% and the IC50 worked out at 950 nM. In data set [3], the SPF worked out at 3.43, the UVA/UVB was 1.96, the UVAPF was found to be 14.13 and the “ʎc (critical wavelength)” value was 388 nm.
